Laboratory results from patent publication US20210223237A1, “COMPOSITIONS AND METHODS FOR STUDYING DRUG METABOLISM” (Boehringer Ingelheim International GmbH, priority 2020, published 2021).
“And” between values parts separate entries of the source, which are not always exact repeats. Identical values can stand only once. Marks after values point to notes of the source that are not given here.

What was measured:
[1] = cited from earlier work
[2] = Non-specific binding of compounds to magnetizable beads alone; details: 30 min incubation of beads (5.3×10^9 beads), bioanalysis of supernatant
in vitro [3] = details: human
[4] = Microsomal binding (fu,mic) using HLM-beads; details: for fu,mic: HLM-beads, compound 1.0 μM, (SD)
in vitro [5] = details: human; remark: listed apart in the source
[6] = Microsomal binding (fu,mic) using rapid equilibrium dialysis (RED); details: compound 1.0 μM, (SD)
UGT2B7 = biological target: T1, UGT2B7 (Homo sapiens, UniProt P16662); assay: in vitro; details: for microsomal CLint: pH 7.8; for Km: pH 7.8, Km, Michaelis-Menten modeling
T1 sequence (P16662 24-529): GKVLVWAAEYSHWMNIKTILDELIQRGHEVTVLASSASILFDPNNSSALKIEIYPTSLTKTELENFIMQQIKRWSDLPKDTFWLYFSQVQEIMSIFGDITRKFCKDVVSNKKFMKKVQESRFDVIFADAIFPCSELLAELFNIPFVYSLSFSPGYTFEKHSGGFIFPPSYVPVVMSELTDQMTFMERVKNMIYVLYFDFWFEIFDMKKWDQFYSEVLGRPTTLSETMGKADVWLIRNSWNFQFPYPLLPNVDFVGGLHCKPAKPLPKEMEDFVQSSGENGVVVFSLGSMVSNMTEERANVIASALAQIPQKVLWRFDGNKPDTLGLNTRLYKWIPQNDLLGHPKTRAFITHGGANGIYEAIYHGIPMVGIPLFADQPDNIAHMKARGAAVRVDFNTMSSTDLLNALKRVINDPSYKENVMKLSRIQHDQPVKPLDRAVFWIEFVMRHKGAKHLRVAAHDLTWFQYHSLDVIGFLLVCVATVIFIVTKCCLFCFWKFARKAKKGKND

UGT1A1 [7] = biological target: T2, UGT1A1 (Homo sapiens, UniProt P22309); assay: in vitro; details: pH 7.8
T2 sequence (P22309 26-533): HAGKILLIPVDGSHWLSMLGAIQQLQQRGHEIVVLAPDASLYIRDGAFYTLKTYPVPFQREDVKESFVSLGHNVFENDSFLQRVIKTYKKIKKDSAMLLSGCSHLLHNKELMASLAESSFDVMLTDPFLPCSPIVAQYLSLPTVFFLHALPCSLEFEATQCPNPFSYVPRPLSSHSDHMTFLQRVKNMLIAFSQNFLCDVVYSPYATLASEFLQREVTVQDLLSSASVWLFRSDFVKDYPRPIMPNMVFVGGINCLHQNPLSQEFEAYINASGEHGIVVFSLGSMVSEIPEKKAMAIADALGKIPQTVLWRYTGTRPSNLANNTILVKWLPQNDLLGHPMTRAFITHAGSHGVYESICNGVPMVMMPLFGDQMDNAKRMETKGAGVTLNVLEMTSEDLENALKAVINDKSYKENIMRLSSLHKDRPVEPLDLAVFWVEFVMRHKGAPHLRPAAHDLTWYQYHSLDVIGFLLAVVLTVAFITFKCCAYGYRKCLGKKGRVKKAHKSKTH

UGT1A1 [8] = biological target: T2, UGT1A1; assay: UGT1A1-catalyzed E2 3-glucuronidation kinetics in HLM suspensions vs HLM-beads
CYP2C8 = biological target: T3, CYP2C8 (Homo sapiens, UniProt P10632)
T3 sequence (P10632 1-490): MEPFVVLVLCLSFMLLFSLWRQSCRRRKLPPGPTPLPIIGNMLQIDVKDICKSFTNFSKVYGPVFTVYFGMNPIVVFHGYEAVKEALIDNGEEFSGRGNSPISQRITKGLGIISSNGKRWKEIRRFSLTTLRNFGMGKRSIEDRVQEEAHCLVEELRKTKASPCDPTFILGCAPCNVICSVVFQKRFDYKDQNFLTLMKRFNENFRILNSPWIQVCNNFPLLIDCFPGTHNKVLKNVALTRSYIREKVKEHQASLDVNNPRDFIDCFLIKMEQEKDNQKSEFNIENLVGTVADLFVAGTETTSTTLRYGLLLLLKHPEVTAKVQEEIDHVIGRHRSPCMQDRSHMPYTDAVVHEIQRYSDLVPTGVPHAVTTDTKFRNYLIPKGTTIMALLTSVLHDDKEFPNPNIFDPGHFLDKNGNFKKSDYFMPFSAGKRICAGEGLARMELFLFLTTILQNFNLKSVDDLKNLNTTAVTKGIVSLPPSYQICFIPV

not read [9] = substrate: CCN(CC)Cc1cc(Nc2ccnc3cc(Cl)ccc23)ccc1O; assay: not read; details: other: HLM suspensions; substrate inhibition modeling; pH 7.4
not read [10] = substrate: C[C@]12CC[C@@H]3c4ccc(O)cc4CC[C@H]3[C@@H]1CC[C@@H]2O; assay: not read; details: other: HLM suspensions; allosteric sigmoidal modeling; pH 7.8; 37.0 °C
[11] = substrate: CC(C)c1cccc(C(C)C)c1O
[12] = human liver microsomes (suspension)
[13] = human liver microsomes bound to magnetic beads (HLM-beads)

CCCCNC(=O)NS(=O)(=O)c1ccc(C)cc1 [Tolbutamide, tolbutamide]
pKa [1]: 5.2

OCc1ncc2n1-c1ccc(Cl)cc1C(c1ccccc1F)=NC2 [1′OH midazolam, 1′hydroxymidazolam]
non-specific binding to the beads [2]: not observed

CN(C)CCCN1c2ccccc2CCc2ccccc21 [Imipramine, imipramine]
fraction unbound at 6 h, 1 μM (in vitro [3]; microsomes): 0.4

CN(C)CCCN1c2ccccc2Sc2ccc(Cl)cc21 [Chlorpromazine, chlorpromazine]
fu,mic ([4]; HLM 0.50 mg/ml): 0.11 (0.02) | fu,mic ([4]; HLM […]): 0.79 (0.13)

Cc1nnc2n1-c1ccc(Cl)cc1C(c1ccccc1)=NC2 [Alprazolam]
fraction unbound at 6 h, 1 μM (in vitro [3]; microsomes): 0.98 | fu,mic ratio HLM-beads/RED ([4]; HLM 0.50 mg/ml): 0.77 | fu,mic ratio HLM-beads/RED ([4]; HLM 1.0 mg/ml): 0.66 | fu,mic ratio HLM-beads/RED ([4]; HLM […]): 0.82 | fu,mic ([4]; HLM 0.50 mg/ml): 0.78 (0.06) | fu,mic ([4]; HLM 1.0 mg/ml): 0.68 (0.07) | fraction unbound at 5 min, 1 μM (in vitro [5]; microsomes): 0.81 | fu,mic ([6]; HLM 0.50 mg/ml): 1.0 (0.1) | fu,mic ([6]; HLM 1.0 mg/ml): 1.0 (0.1)

Cc1cn([C@H]2C[C@H](N=[N+]=[N-])[C@@H](CO)O2)c(=O)[nH]c1=O [AZT, zidovudine]
microsomal CLint (UGT2B7; [12]): 0.44 µL/min/mg | microsomal CLint (UGT2B7): 2.8 µL/min/mg | Km (UGT2B7; HLM suspensions): 1400 ± 0.1 µM | Km (UGT2B7; HLM-beads): 490 ± 0.06 µM

C[C@]12CC[C@@H]3c4ccc(O)cc4CC[C@H]3[C@@H]1CC[C@@H]2O [E2, estradiol]
microsomal CLint (UGT1A1 [7]; [12]): 59 µL/min/mg | microsomal CLint (UGT1A1 [7]): 88 µL/min/mg | V/K or CLint, fold higher in HLM-beads than in HLM suspensions (UGT1A1 [8]): higher | Vmax, HLM-beads compared with HLM suspensions (UGT1A1 [8]): comparable

COc1ccc([C@@H]2Sc3ccccc3N(CCN(C)C)C(=O)[C@@H]2OC(C)=O)cc1 [Diltiazem, diltiazem]
fraction unbound at 6 h, 1 μM (in vitro [3]; microsomes): 0.96 | fu,mic ratio HLM-beads/RED ([4]; HLM 0.50 mg/ml): 1.5 | fu,mic ratio HLM-beads/RED ([4]; HLM 1.0 mg/ml): 1.3 | fu,mic ratio HLM-beads/RED ([4]; HLM […]): 1.0 | fraction unbound at 5 min, 1 μM (in vitro [5]): 0.99 | fraction unbound at 5 min, 1 μM (in vitro [5]; [13]): 0.97 | pKa [1]: 9.4

O=C(O)Cc1ccccc1Nc1c(Cl)cccc1Cl [Diclofenac, diclofenac]
fraction unbound at 6 h, 1 μM (in vitro [3]; microsomes): 0.98 | fu,mic ([4]; HLM 0.50 mg/ml): 0.92 (0.03)^a | fraction unbound at 5 min, 1 μM (in vitro [5]): 0.94 | fraction unbound at 5 min, 1 μM (in vitro [5]; [13]): 0.87

CCN(CC)Cc1cc(Nc2ccnc3cc(Cl)ccc23)ccc1O [Amodiaquine, amodiaquine]
Km, times higher with HLM-beads than with HLM suspensions (CYP2C8): approximately 2 ×

CCC(C)n1ncn(-c2ccc(N3CCN(c4ccc(OCC5COC(Cn6cncn6)(c6ccc(Cl)cc6Cl)O5)cc4)CC3)cc2)c1=O (centres unmarked) [Itraconazole, itraconazole]
fraction unbound at 6 h, 1 μM (in vitro [3]): 0.025 | fu,mic ratio HLM-beads/RED ([4]; HLM 0.50 mg/ml): 2.8 | fu,mic ratio HLM-beads/RED ([4]; HLM 1.0 mg/ml): 2.9 | fu,mic ratio HLM-beads/RED ([4]; HLM […]): 0.84 | fu,mic ([4]; HLM 0.50 mg/ml): 0.10 (0.01) | fu,mic ([4]; HLM […]): 0.24 (0.04) | fraction unbound at 5 min, 1 μM (in vitro [5]; [13]): 0.073 | fu,mic ([6]; pre-soak method, HLM 0.50 mg/ml): 0.036 (0.005)^b | fu,mic ([6]; pre-soak method, HLM […]): 0.29 (0.07)^b

B1: CYP2C8 (Homo sapiens) (protein)
chain: T3 sequence (P10632 1-490)
Km (not read [9]): 0.732 ± 0.11 µM | Vmax/Km (not read [9]): 1340 µL/min/mg

B2: UGT1A1 (Homo sapiens) (protein)
chain: T2 sequence (P22309 26-533)
K0.5 (not read [10]): 13 ± 1 µM

B3: UGT1A9 (Homo sapiens) (protein)
chain: GKLLVVPMDGSHWFTMRSVVEKLILRGHEVVVVMPEVSWQLGRSLNCTVKTYSTSYTLEDLDREFKAFAHAQWKAQVRSIYSLLMGSYNDIFDLFFSNCRSLFKDKKLVEYLKESSFDAVFLDPFDNCGLIVAKYFSLPSVVFARGILCHYLEEGAQCPAPLSYVPRILLGFSDAMTFKERVRNHIMHLEEHLLCHRFFKNALEIASEILQTPVTEYDLYSHTSIWLLRTDFVLDYPKPVMPNMIFIGGINCHQGKPLPMEFEAYINASGEHGIVVFSLGSMVSEIPEKKAMAIADALGKIPQTVLWRYTGTRPSNLANNTILVKWLPQNDLLGHPMTRAFITHAGSHGVYESICNGVPMVMMPLFGDQMDNAKRMETKGAGVTLNVLEMTSEDLENALKAVINDKSYKENIMRLSSLHKDRPVEPLDLAVFWVEFVMRHKGAPHLRPAAHDLTWYQYHSLDVIGFLLAVVLTVAFITFKCCAYGYRKCLGKKGRVKKAHKSKTH
K0.5 [11]: 30 ± 4 μM and 13 ± 2^sig μM
